Measured values reported in patent US11571426B2, “Compositions for preventing or treating lupus” (CHONG KUN DANG PHARMACEUTICAL CORP., priority 2017, dated 2023).

How the values were obtained:
Assay type in all cases: in vivo
[1] = test system: NZB/W F1 female mice; test: Weight recovery in SLE model mouse
Experimental: (§1) 80 NZB/W F1 female mice (four weeks old) were purchased from Jackson Laboratory and maintained in an SPF breeding room with five mice per cage. Their weight and urine protein were measured at 24 weeks after birth (right before administration), and then all the animals except those having too much urine protein were divided into groups as shown in a table 2 below such that the urine protein and weight might be evenly distributed among the groups.
(§2) Then, the mice were administered as described in the table 2 once a day for about 19 weeks from 24 weeks after birth to 42 weeks after birth.

[2] = test system: NZB/W F1 female mice; test: T cell populations in spleen (FACS) in SLE disease mouse
[3] = test system: NZB/W F1 female mice; test: Survival rate in SLE model mouse; details: for survival rate: 42 weeks after birth
Experimental: as §1, §2
An NZB/W F1 female mouse is used as a human SLE disease model. If not treated at all, it is known that this model falls dead all after 12 months or so (about 52 weeks old) due to immune-complex glomerulonephritis.

[4] = test system: NZB/W F1 female mice; test: Serum anti-dsDNA antibodies (ELISA) in SLE model mouse
Experimental: as §1, §2
The fresh urine of mice was collected before and after administration every two weeks, while blood collection was performed before and after administration every four weeks. The serum was prepared by centrifugation of the collected blood and then kept at −70° C.
To identify if the pharmaceutical composition according to the present invention may reduce an increased concentration of anti-dsDNA antibodies shown in the SLE model animal, a concentration of anti-dsDNA antibodies in mouse serum was measured by means of a mouse anti-dsDNA ELISA (enzyme-linked immunosorbent assay) kit (Shibayagi).

[5] = 50 mg/kg dosed group vs negative control

O=C(NO)c1ccc(CN(C(=O)N2CCOCC2)c2cccc(C(F)(F)F)c2)cc1 [Compound 374, N-(4-(hydroxycarbamoyl)benzyl)-N-(3-(trifluoromethyl)phenyl)morpholine-4-carboxamide]
weight ([1]; 10 mg/kg dosed group, from about 40 weeks): recovered to the same level as that of the positive control group
weight recovery ([1]; 30 and 50 mg/kg dosed groups, vs positive control): more excellent weight recovery effect
decrease of ratio of CD138+ cells ([2]; 10 mg/kg dosed group, vs negative control): 21.2%
decrease of ratio of CD138+ cells ([2]; 30 mg/kg dosed group, vs negative control): 25.2%
decrease of ratio of CD138+ cells [2, 5]: 31.6%
survival rate ([3]; 10 mg/kg dosed group): about 73.3%
survival rate ([3]; 30 mg/kg dosed group): about 93.3%
survival rate ([3]; 50 mg/kg dosed group): about 93.3%
survival rate pattern ([3]; experimental groups (10, 30, 50 mg/kg), vs negative control): better recovery pattern
decrease of serum concentration of anti-dsDNA antibodies [4, 5]: two-fold
serum concentration of anti-dsDNA antibodies ([4]; after 28 week after birth, all the experimental groups, vs negative control): tended to decrease more
